From PubChem BioAssay (NCI)
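Growth conditions: 96-well plates. Treatment: test compound, 48 hours, 5 concentrations. Analysis: linear interpolation between bracketing concentrations; unreached endpoints set to highest concentration. The concentration for full growth arrest is given as TGI.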

Tests used:
Experiment in all cases: NCI tumour cell line growth inhibition, 48 h
786-0 renal = test system: 786-0 renal
ACHN renal = test system: ACHN renal
BT-549 breast = test system: BT-549 breast
DU-145 prostate = test system: DU-145 prostate
HOP-62 NSCLC = test system: HOP-62 NSCLC
HOP-92 NSCLC = test system: HOP-92 NSCLC
IGROV1 ovarian = test system: IGROV1 ovarian
M14 melanoma = test system: M14 melanoma
MDA-N = test system: MDA-N
NCI/ADR-RES ovarian = test system: NCI/ADR-RES ovarian
OVCAR-4 ovarian = test system: OVCAR-4 ovarian
OVCAR-8 ovarian = test system: OVCAR-8 ovarian
SF-539 CNS = test system: SF-539 CNS
SK-MEL-5 melanoma = test system: SK-MEL-5 melanoma
SN12C renal = test system: SN12C renal
SR leukemia = test system: SR leukemia
UACC-62 melanoma = test system: UACC-62 melanoma
HT29 colon = test system: HT29 colon

Structure (SMILES)	TGI (786-0 renal) [µM]	TGI (ACHN renal) [µM]	TGI (BT-549 breast) [µM]	TGI (DU-145 prostate) [µM]	TGI (HOP-62 NSCLC) [µM]	TGI (HOP-92 NSCLC) [µM]	TGI (IGROV1 ovarian) [µM]	TGI (M14 melanoma) [µM]	TGI (MDA-N) [µM]	TGI (NCI/ADR-RES ovarian) [µM]	TGI (OVCAR-4 ovarian) [µM]	TGI (OVCAR-8 ovarian) [µM]	TGI (SF-539 CNS) [µM]	TGI (SK-MEL-5 melanoma) [µM]	TGI (SN12C renal) [µM]	TGI (SR leukemia) [µM]	TGI (UACC-62 melanoma) [µM]	TGI (HT29 colon) [µM]
CC(=O)O[C@H]1C(=O)[C@@]2(C)[C@H]([C@H](OC(=O)C3CCCCC3)[C@]3(O)C[C@H](OC(=O)[C@H](O)[C@@H](NC(=O)C4CCCCC4)C4CCCCC4)C(C)=C1C3(C)C)[C@]1(OC(C)=O)CO[C@@H]1C[C@@H]2O	6.97	12.4	0.778	2.27	0.803	4.72	6.77	1.2	0.00852	5.68	11.8	5.12	0.766	1.12	14.8	9.67	3.89	
O=C1/C(=C\c2cccc(Oc3ccccc3)c2)SC(c2ccccc2)N1c1ccc(Cl)cc1 (stereo not given)	> 100	> 100	> 100	> 100	> 100	> 100		> 100	> 87.9	> 100	> 100	> 100	52.6	> 41.7	> 100	> 55.9	> 100	> 100
O=S1(=O)CCN(Cc2ccccc2)/C1=N\S(=O)(=O)c1ccc(Cl)cc1	34.5	33.1	31.1	35.3	> 100	35.3	32.5	32.9	32.2	35.8	36.2	32.9	36.1	41.9	33.3	59.9	32	32.6
CN(C)CCO/N=C1/C=C2CC[C@H]3[C@@H]4CC[C@H](O)[C@@]4(C)CC[C@@H]3[C@@]2(C)CC1	27.9	40.9	8.27	45.9	> 87.4	23	25.2	> 37	11.2	17.1		45.5	13.2	34.3	32.8	19.6	26	5.53
O=[N+]([O-])c1cccc2nccc(NCC(O)CO)c12 (stereo not given)	35	45.2	29.6	75.6	33.6	53.8	38.9	32.9	31.8	73.3	43	33.2	36.9	25.8	41	28	31.5	42
C/C=C(/C)C(=O)O[C@H]1C(C)=C[C@]23C(=O)[C@@H](C=C(COC(C)=O)[C@@H](O)[C@]12O)[C@H]1[C@@H](C[C@H]3C)[C@@]1(C)OC(=O)/C(C)=C\C	8.93	4.39	5.73	6.21	5.25	6.34	10.2	5.47	6.35	6.82	6.33	11.3	5.88	3.84	5.34	10.9	5.69	1.49
O=C1CC2(CCC(O)(c3ccc(Cl)cc3)C(C(=O)c3ccc(Cl)cc3)C2)C(=O)c2ccccc2N1 (stereo not given)	4.24	25.4	49.9	> 36.8	> 100	8.31	> 52.1	> 100	98.1	> 44.5	> 100	> 62.4	11.2	43.4	24.8	> 100	> 52.8	> 50
C=C[C@@]1(C)CC(=O)[C@]2(O)[C@@]3(C)[C@@H](OC(C)=O)CCC(C)(C)[C@@H]3[C@H](OC(C)=O)[C@H](OC(C)=O)[C@@]2(C)O1	> 100	> 100	> 100	> 100	> 100	> 100	> 100	> 100	> 100	> 100	> 100	> 100	> 100		> 100	> 100	> 100	> 100
c1ccc(CCN(Cc2nc3ccccc3[nH]2)Cc2nc3ccccc3[nH]2)cc1	31.7	22.4	27.2	31.7	24.9	30.7	17.8	26.7	36.3	18.1	68.9	18.6	38.9	16.3	30.8	35.3	28.3	> 63.5
COC(=O)C1(O)c2ccccc2N=C2C(=O)c3ccccc3N21 (stereo not given)	> 100	> 100	> 100	> 100	> 100	> 100	> 100		41.8	> 100	> 100	> 100	> 100	> 100	> 100	> 100		> 100
CCOC(=O)c1ccc(C(=O)/C(C#N)=C2\CCCN2)[nH]1	> 100		> 100	> 100	> 100	> 100	> 100	> 100	> 100	> 100	> 100	> 100	> 100	> 100	> 100	84.5	> 100	> 100
O=C1CCCc2cc3c(cc21)CCC3C(=O)O (stereo not given)	> 100	> 100	> 100	> 100	> 100		> 100	> 100	> 100	> 100	> 100	> 100	> 100	> 100	> 100	> 100	> 100	> 100
N#CS/C(Cl)=C(/C(Cl)=C(Cl)Cl)[N+](=O)[O-]	76.4	> 100	> 100	> 100	> 100		> 100	> 100	> 100	98.1	> 100	> 100	> 100	> 100	> 100	53.9	> 100	> 100
